pIC50: −log10 of the molar value. Residues, ends and D or L forms follow the SMILES beside them. No end group written: not given here.
Key:
Assay in all cases: biochemical
Assay type in all cases: binding
HLA-A3.2 (A*0301) = HLA-A3.2 (A*0301) (Homo sapiens, UniProt P04439); settings: for A3.2: Table 164, MAGE peptides, binding value to HLA-A3.2, no unit given; for A*0301 binding: Table 11, binding value, no unit
HLA-A11 (A*1101) = HLA-A11 (A*1101) (Homo sapiens, UniProt P04439, A114D/D185E/E176A/F33Y/L180Q/S129P/T187R); set-up: A11: unit not given here
A31 (A*3101) = A31 (A*3101) (Homo sapiens, UniProt P04439, A270S/D185E/E176V/E277Q/F33T/G231S/G80R/H175R/I121M/I218V/I322F/K168Q/L300P/L318F/M331R/P217A/Q94H/R138Q/T323A/T345S/T97I/V358M)
A*3301 = A*3301 (Homo sapiens, UniProt P04439, A270S/D185E/E176V/E277Q/E87N/F33T/G231S/H175R/I121M/I218V/I322F/K168Q/K210R/L300P/L318F/M331R/P217A/Q86R/Q94H/R138Q/T323A/T345S/T97I/V358M/Y195H)
HLA-A*0201 (HLA-A2.1) = HLA-A*0201 (HLA-A2.1) (Homo sapiens, UniProt P04439, D140Y/D185E/D98H/E176V/E277Q/G131W/G231S/I119V/I121R/I166T/I218V/L300P/L318F/N151K/N90K/P208A/P217A/Q86G/Q94H/R138H/R169H/T345S)
A*6801 = A*6801 (Homo sapiens, UniProt P04439, A269V/D185E/E176V/E277Q/E87N/F33Y/G231S/I121M/I166T/I218V/L180W/L300P/L318F/N151K/P208A/P217A/Q86R/R169H/T345S)

Row | Compound | pIC50 (HLA-A3.2 (A*0301)) | pIC50 (HLA-A11 (A*1101)) | pIC50 (A31 (A*3101)) | pIC50 (A*3301) | A2.1 (HLA-A*0201 (HLA-A2.1)) | A3.2 (HLA-A3.2 (A*0301)) | A11 (HLA-A11 (A*1101)) | A*0301 binding (HLA-A3.2 (A*0301)) | A*1101 binding (HLA-A11 (A*1101)) | pIC50 (A*6801)
1 | NTKATLLYK [Peptide 88.0385] | 6.40 | 6.96 | 5.42 | 6.77 |  |  |  |  |  | 
2 | QLALEALNK [Peptide 88.0424] | 6.78 | 6.81 | < 4.70 | < 4.70 |  |  |  |  |  | 
3 | STWHWTSDDK [Peptide 1589.43] | 6.47 | 7.33 | 5.28 | < 4.70 |  |  |  |  |  | 
4 | RIGILRQRR [Peptide 9017.0113] | 6.56 | 5.94 | 8.12 |  |  |  |  |  |  | 
5 | LVFGIDVKEA |  |  |  |  | 0.0002 | <0.0002 | 0 |  |  | 
6 | 34.0232 (RVCACPGRDK) [Peptide 34.0232] |  |  |  |  |  |  |  | 0.0190 | 0.0250 | 
7 | F119.01 (MSLQRQFLR) [Peptide F119.01] |  |  |  |  |  |  |  | 0.2000 | 0.7200 | 
8 | TVRHKKLMFK [Peptide 1556.79] | 6.36 | 6.73 | 5.29 | 4.93 |  |  |  |  |  | 
9 | RLIDRIRER [Peptide 9017.0123] | 7.44 | 6.86 | 8.34 | 6.03 |  |  |  |  |  | 
10 | VLYGPANTGK [Peptide 88.0180] | 8.01 | 7.60 | 5.71 |  |  |  |  |  |  | 
11 | SVRKLVEDR [Peptide 9017.0105] | 5.29 | 5.94 | 7.82 | 6.73 |  |  |  |  |  | 
12 | KSLFGMSLMK [Peptide 1587.13] | 8.36 | 8.82 | 6.57 | < 4.70 |  |  |  |  |  | 
13 | CC[C@H](C)[C@H](NC(=O)[C@H](CS)NC(=O)[C@H](CCCNC(=N)N)NC(=O)[C@@H](NC(=O)[C@@H](N)CC(C)C)[C@@H](C)CC)C(=O)N[C@H](C(=O)N[C@@H](CS)C(=O)N[C@@H](CCC(N)=O)C(=O)N[C@@H](CCCCN)C(=O)O)[C@@H](C)CC [Peptide 88.0298] (H-LIRCIICQK-OH) | 6.35 | 6.60 | 6.19 | 6.08 |  |  |  |  |  | 
14 | 34.0171 (SSBMGGMNK) [Peptide 34.0171] |  |  |  |  |  |  |  | 0.5440 | 1.1000 | 
15 | QTRSLTEILK [Peptide 9012.0217] | 6.60 | 7.02 | 5.50 | 4.70 |  |  |  |  |  | 
16 | TVWNPPTTAK [Peptide 1556.03] | 7.60 | 7.59 | 5.04 | 5.80 |  |  |  |  |  | 
17 | GLYYIHGNEK [Peptide 1589.40] | 7.77 | 7.74 | 6.85 | 5.35 |  |  |  |  |  | 
18 | LALTALITPK [Peptide 9017.0228] | 7.06 | 8.18 | 5.76 | < 4.70 |  |  |  |  |  | 
19 | WTLELLEELK [Peptide 9017.0238] | < 4.70 | 5.42 | 4.76 | < 4.70 |  |  |  |  |  | 
20 | EVYDGREHSA |  |  |  |  | 0 | <0.0002 | 0 |  |  | 
21 | LQMALETLSK [Peptide 88.0214] | 6.25 | 7.66 | 4.97 | < 4.70 |  |  |  |  |  | 
22 | SLARRHIAR [Peptide 9017.0067] | 7.18 | 5.96 | 8.82 | 7.52 |  |  |  |  |  | 

Row | Compound | pIC50 (HLA-A3.2 (A*0301)) | pIC50 (HLA-A11 (A*1101)) | pIC50 (A31 (A*3101)) | pIC50 (A*3301) | A2.1 (HLA-A*0201 (HLA-A2.1)) | A3.2 (HLA-A3.2 (A*0301)) | A11 (HLA-A11 (A*1101)) | A*0301 binding (HLA-A3.2 (A*0301)) | A*1101 binding (HLA-A11 (A*1101)) | pIC50 (A*6801)
23 | VSIEWRKRR [Peptide 9017.0090] | 5.58 | 7.11 | 8.04 | 7.24 |  |  |  |  |  | 
24 | KQMSMSQWIK [Peptide 1587.09] | 7.31 | 7.77 | 7.30 |  |  |  |  |  |  | 
25 | GVSIEWRQR [Peptide 9017.0087] | 4.88 | 5.91 | 6.47 | 5.68 |  |  |  |  |  | 
26 | FLIIVLVMIA |  |  |  |  | 0.0003 | 0.0093 | 0.0030 |  |  | 
27 | VVYRLVWDK [Peptide 1589.38] | 7.20 | 7.89 | 6.00 | 5.42 |  |  |  |  |  | 
28 | RFHNIAGHYR [Peptide 78.0097] | 5.61 |  | 7.96 | 7.00 |  |  |  |  |  | 6.82
29 | ISKQPLPQTR [Peptide 9017.0207] | < 4.70 | < 4.70 | 7.08 | 5.59 |  |  |  |  |  | 
30 | VVCTYSPALNK [Peptide 1556.35] | 6.43 | 6.98 | 5.28 | < 4.70 |  |  |  |  |  | 
31 | ALTALITPK [Peptide 9017.0099] | 7.77 | 7.80 | 6.36 |  |  |  |  |  |  | 
32 | AFKDLFVVYK [Peptide 88.0024] | 5.49 |  | 7.49 | 7.03 |  |  |  |  |  | 6.24
33 | VVPALSVSK [Peptide 1589.14] | 6.29 | 7.48 | < 4.70 | < 4.70 |  |  |  |  |  | 
34 | WFFVETIVEK [Peptide 88.0171] | 4.86 | 5.83 | 4.74 | 6.70 |  |  |  |  |  | 
35 | SFTDLVRNFK [Peptide 88.0143] | 5.80 |  | 7.33 | 7.25 |  |  |  |  |  | 7.66
36 | LQQTSLEMWR [Peptide 88.0228] | 4.88 | 6.35 |  | < 4.70 |  |  |  |  |  | 
37 | KQFLQGVPK [Peptide 88.0390] | 7.49 | 7.77 | 7.36 | 5.29 |  |  |  |  |  | 
38 | QQRSLTEILK [Peptide 9012.0218] | 6.28 | 7.03 |  | < 4.70 |  |  |  |  |  | 
39 | DSNAQAFLK [Peptide 88.0379] | < 4.70 |  | < 4.70 | 7.70 |  |  |  |  |  | 7.41
40 | IMCLRFLSK [Peptide 1571.12] | 7.96 |  | 5.64 | 5.58 |  |  |  |  |  | 4.89
41 | F119.02 (LLGPGRPYR) [Peptide F119.02] |  |  |  |  |  |  |  | 0.0190 | 0.0091 | 
42 | VVFGILIKRK [Peptide 9012.0246] | 7.27 | 7.89 | 5.59 | 4.99 |  |  |  |  |  | 
43 | FLGALKSFLK [Peptide 88.0148] | 7.57 | 6.92 | 6.49 |  |  |  |  |  |  | 
44 | VLCGPPNTGK [Peptide 88.0189] | 6.85 | 6.66 | 6.43 | < 4.70 |  |  |  |  |  | 

Row | Compound | pIC50 (HLA-A3.2 (A*0301)) | pIC50 (HLA-A11 (A*1101)) | pIC50 (A31 (A*3101)) | pIC50 (A*3301) | A2.1 (HLA-A*0201 (HLA-A2.1)) | A3.2 (HLA-A3.2 (A*0301)) | A11 (HLA-A11 (A*1101)) | A*0301 binding (HLA-A3.2 (A*0301)) | A*1101 binding (HLA-A11 (A*1101)) | pIC50 (A*6801)
45 | KTLLQQYCLY [Peptide 88.0130] | 6.69 |  | 5.53 | 4.84 |  |  |  |  |  | 5.15
46 | FAFTDLTIVY [Peptide 78.0103] | < 4.70 | < 4.70 | < 4.70 | < 4.70 |  |  |  |  |  | 
47 | SQTCALYWFR [Peptide 88.0165] | 5.31 | 5.74 |  | 6.59 |  |  |  |  |  | 
48 | TVDVYMIMVK [Peptide 9012.0257] | 4.95 | 7.02 | < 4.70 | < 4.70 |  |  |  |  |  | 
49 | TVSATQIVR [Peptide 1589.26] | 5.60 |  | 6.67 | 6.19 |  |  |  |  |  | 7.85
50 | AAEGVGAVSR [Peptide 9017.0188] | 4.79 | 6.00 | 5.57 | 5.39 |  |  |  |  |  | 
51 | VTIKIGGQIK [Peptide 1516.02] | 5.95 | 6.74 | 4.71 | < 4.70 |  |  |  |  |  | 
52 | VFGIDVKEA |  |  |  |  | <0.0002 | <0.0002 | 0 |  |  | 
53 | LLCGPANTGK [Peptide 88.0195] | 6.86 |  | 5.44 | < 4.70 |  |  |  |  |  | 5.72
54 | LTARNVLVK [Peptide 9012.0213] | 7.64 |  | < 4.70 | < 4.70 |  |  |  |  |  | 7.28
55 | SQWIKYRCSK [Peptide 88.0174] | 6.03 |  | 6.49 | 5.47 |  |  |  |  |  | < 4.70
56 | KVCSGVDYR [Peptide 1589.35] | < 4.70 | 5.29 |  | 5.24 |  |  |  |  |  | 
57 | 34.0050 (RVCACPGR) [Peptide 34.0050] |  |  |  |  |  |  |  | 0.3500 | 0.0490 | 
58 | FTDLTIVYR [Peptide 78.0313] | < 4.70 | 5.57 | 6.22 | 6.23 |  |  |  |  |  | 
59 | VLILALLRYK [Peptide 88.0144] | 7.28 | 6.58 |  |  |  |  |  |  |  | 
60 | LTYISTSQR [Peptide 1589.19] | 7.85 |  | 7.41 | 7.10 |  |  |  |  |  | 9.12
61 | KQLQHTPSPY [Peptide 88.0204] | 6.93 |  | < 4.70 | < 4.70 |  |  |  |  |  | < 4.70
62 | GQGVSIEWRK [Peptide 9017.0219] | 4.82 |  | 5.10 | < 4.70 |  |  |  |  |  | 5.65
63 | 34.0323 (RVCACPGRDRR) [Peptide 34.0323] |  |  |  |  |  |  |  | 0.0290 | 0.0290 | 
64 | NTNAGTDPR [Peptide 88.0372] | 5.95 |  | 5.15 | 6.38 |  |  |  |  |  | 7.30

— patent publication US9340577B2, “HLA binding motifs and peptides and their uses” (priority 1992, dated 2016)
